From patent US11666640B2, “Glucose oxidase compositions as a neonate anticonvulsant” (PENN STATE RESEARCH FOUNDATION, priority 2018, dated 2023)
Entries after “also recorded” stand apart in the source; their conditions may differ.

Legend:
Type in all cases: cell-based, mouse
[1] = test system: GABAA-R reversal potential (EGABA); assay: Gramicidin-perforated whole-cell recording of GABAA-R reversal potential (EGABA) in CA3 pyramidal neurons
Experimental: To further test this idea, the GABAA-R reversal potential (EGABA), which governs GABA excitatory versus inhibitory function, was directly measured using gramicidin-perforated whole-cell recordings in neonatal mouse brain slices (e.g., P8-P9). As expected, epileptiform activity induced a large depolarizing shift in EGABA after treating hippocampal slices with 0 Mg^2+ aCSF for 1 h (aCSF: −59.2±2.0 mV, n=13; 0 Mg^2+: −48.2±1.1 mV, n=10). FIG. 16D. Treatment with bumetanide (Bum, 10 μM), a specific blocker for NKCC1 at low concentrations, induced a hyperpolarizing shift in EGABA (blue line) as compared to a control EGABA (dashed line). […]. […] Kaila et al., “Cation-chloride cotransporters in neuronal development, plasticity and disease” Nature Reviews. Neuroscience 15:637-654 (2014); Dzhala et al., “NKCC1 transporter facilitates seizures in the developing brain” Nature Medicine 11:1205-1213 (2005); and Loscher et al., “Cation-chloride cotransporters NKCC1 and KCC2 as potential targets for novel antiepileptic and antiepileptogenic treatments” Neuropharmacology 69:62-74 (2013). […] FIG. 16E, yellow line; Bum, −68.0±1.7 mV (n=9); 0 Mg^2++Bum, −50.2±1.4 mV (n=9); (p<0.002).

[2] = test system: hippocampal slices; assay: Field potential recording of epileptiform activity in hippocampal slices (CA3 pyramidal layer)
[3] = test system: GABA-induced neuronal activity; assay: Cell-attached recording of spike firing elicited by isoguvacine in CA3 pyramidal neurons; conditions: P8-9, isoguvacine 10 μM, 30 s
Experimental: Besides EGABA, the effects of different drugs on GABA-induced neuronal activity during epileptogenesis were investigated in neonatal animals (e.g., P8-9). To accurately measure GABA-induced neuronal activity, cell-attached recordings monitored spike firing elicited by local application of the GABAA-R agonist isoguvacine (10 μM, 30 s). Tyzio et al., “Maternal oxytocin triggers a transient inhibitory switch in GABA signaling in the fetal brain during delivery” Science 314:1788-1792 (2006). […] FIG. 16K, control, (n=32). […] FIG. 16K, 0 Mg^2+ (n=19). […] FIG. 16K; 0 Mg^2++Bum (n=19); and 0 Mg^2++VU (n=21). […] FIG. 16K; 0 Mg^2++NaGcA (n=18).

[4] = test system: cultured neurons; assay: LIVE/DEAD viability assay, kainic acid (KA)-induced cell death model; conditions: sodium salt
Excerpt: Epileptic activity may induce cell death both in epileptic patients and animal models. Chen et al., “Differential roles of NR2A- and NR2B-containing NMDA receptors in activity-dependent brain-derived neurotrophic factor gene regulation and limbic epileptogenesis” The Journal Of Neuroscience: the official journal of the Society for Neuroscience 27:542-552 (2007); and Naseer et al., “Maternal epileptic seizure induced by pentylenetetrazol: apoptotic neurodegeneration and decreased GABAB1 receptor expression in prenatal rat brain” Molecular Brain 2:20 (2009). […] Wu et al., “Protective effect of resveratrol against kainate-induced temporal lobe epilepsy in rats” Neurochemical Research 34:1393-1400 (2009). In a control group, most neurons appeared to be healthy in morphology and were stained by calcein (green, live) but not ethidium homodimer-1 (EthD-1, red, death). See, FIG. 1J, left. […]
A LIVE/DEAD® Viability/Cytotoxicity Assay Kit (L3224, Life Technologies) containing ethidium homodimer-1 and calcein-AM was used to examine cell viability. Ethidium homodimer-1 binds to cellular DNA and typically labels dead cells in red fluorescence, while Calcein-AM can be cleaved by esterases in live cells to give strong green fluorescence. […] Cell survival and death rate were measured by quantifying the percentage of green and red fluorescent cells, respectively. […]

[5] = 0 Mg2+ aCSF, WT slices P8-12 pre-treated with 20 mM NaGcA

Question: Which results are given for `O=C([O-])[C@H](O)[C@@H](O)[C@H](O)[C@H](O)CO.[Na+]` [NaGcA, D-gluconic acid sodium salt]?
Answer: EGABA in 0 Mg2+ aCSF in CLC-3 KO mice ([1]; CLC-3 KO mice, application of NaGcA): −56.6±2.4 mV; positive EGABA shift induced by 0 Mg2+ aCSF ([1]; neonatal CA3 neurons): completely abolishes; EGABA in 0 Mg2+ aCSF ([1]; neonatal P8-P9, 0 Mg2+ aCSF, bumetanide 10 μM, VU0240551 10 μM, NaGcA 20 mM): −59.3±1.7 mV; EGABA in normal aCSF ([1]; neonatal P8-P9, bumetanide 10 μM, VU0240551 10 μM, NaGcA 20 mM): −60.3±0.9 mV; reduction of average power of epileptic activity ([2]; 0 Mg2+ aCSF, 20 mM NaGcA, P6-8): 59.6±4.3%; reduction of average power of epileptic activity ([2]; 0 Mg2+ aCSF, 20 mM NaGcA, P10-12): 62.1±3.8%; reduction of average power of epileptic activity ([2]; 0 Mg2+ aCSF, 20 mM NaGcA, P21-33): 23.8±4.1%; burst latency [2, 5]: significantly prolonged; total burst activity [2, 5]: significantly reduced; epileptic activity induced by 4-AP ([2]; 50 μM 4-AP, neonatal slices, 20 mM NaGcA, sodium salt): significantly reduced; also recorded: attenuated; epileptiform activity induced by 0 Mg2+ aCSF, neonatal slices ([2]; 20 mM NaGcA, P6-12, sodium salt): strong inhibition; also recorded: strong efficacy; also recorded: dramatically reduced; also recorded: potent anti-epileptic effect; also recorded: inhibited; epileptiform activity induced by 0 Mg2+ aCSF, older animals ([2]; 20 mM NaGcA, P21-33 (P26), sodium salt): modest effect; also recorded: much less inhibition; also recorded: much smaller; also recorded: moderate anti-epileptic discharges effect; also recorded: less effect; reduction of the power amplitude ([2]; 4-AP (50 μM) model, neonatal slices, 20 mM NaGcA): 70.2±5.3%; reduction of the power amplitude ([2]; high K+ (8.5 mM) model, neonatal slices, 20 mM NaGcA): 70.8±4.9%; epileptic burst activity in high K+ model ([2]; high K+ aCSF (8.5 mM), neonatal slices, 20 mM NaGcA, sodium salt): remarkably suppressed; also recorded: blocked; also recorded: dramatically reduced; spike activity elicited by isoguvacine after 0 Mg2+ treatment [3]: essentially abolished; KA-induced neuronal death ([4]; 10 μM KA for 24 hrs, co-application of 20 mM NaGcA): abolished; also recorded: neuron protection function; neuron survival rate, NaGcA alone ([4]; 20 mM NaGcA alone): no side effect; also recorded: without any side effect
